Several values for one entry are separate records, joined by “and”; a condition that tells them apart may be missing. Equal values may be shown once. Read-outs that look alike come from different tables or passages of the source.

Assay [1] relates to Enterococcus faecalis. The conditions noted are these: for mean log reduction of CFU compared with the controls: E. faecalis in dual-species biofilm; for significance of reduction of E. faecalis vs negative controls (ANOVA): α=0.05.
Experimental: (§1) In brief, round glass cover slips attached to a custom made stainless steel lid, were suspended in medium inoculated with bacteria.
(§2) Cells of E. faecalis V583 and P. aeruginosa, both clinical isolates, were grown and maintained as pure cultures on blood agar plates. E. faecalis was grown under anaerobic conditions (80% N2, 10% H2 and 1.0% CO2) while P. aeruginosa was grown in air, both at 37° C. Because of their shape, Gram-staining and atmospheric preferences, distinguishing between the two species with (ISM and CFU was fairly simple. Growth media for overnight cultures and biofilms were Brain Heart Infusion Broth (BHI, Oxoid, Basinstoke, UK) and BHI-broth contained 0.5 BHI, 50 mM pipes, 5% saccharose, 1 mM Ca^2+ during biofilm growth. In the experimental phase, sodium chloride (NaCl), (Merck, Darmstadt, Germany) was added to the BHI-broth to raise the osmotic value. Other medicaments used were saturated Ca(OH) in BHI-broth (slurry), 2% sodium hypochlorite (NaOCl), Merck, Darmstadt, Germany), 2% sodium thiosulphate (STS) in peptone water (1% peptone (Oxoid) in water) for neutralising the NaOCl. Phosphate buffered saline (PBS, Oxoid) was used to wash the negative controls, as a neutralising agent for NaCl, Ca(OH)2 and for serial
(§3) Fresh cultures of each micro-organism were obtained by suspending one loopful bacteria in 5 mL BHI and grown overnight at 37° C. in air. Numbers of CFU were estimated by optical density measurement at 600 nm and relating the readings to previously performed bacterial counts. 100 μL with approximately 2×10^9 E. faecalis and 100 μL with approximately 2×10^7 P. aeruginosa were inoculated in wells of a 24 Well Multiwell Plate (Greiner Bio-one, Frickenhausen, Germany) containing 1.5 mL BHI-broth. Round glass cover slips (MMG, Germany), diameter 15 mm, mounted in a custom-made stainless steel lid, were suspended in the BHI-broth. Biofilms were grown on glass cover slips to be able to monitor the biofilm growth with a confocal laser scanning microscope (CLSM; Leica SP2-OBS). The biofilms were firmly attached on the glass slips, allowing manipulation of the coverslips without biofilm disruption.
(§4) Biofilms were grown on the coverslips for 96 h before exposure to the medicaments. […] The broth was refreshed daily. Inoculation of bacteria and the biofilm growth took place at 37° C. in air. After 48 h biofilm growth was confirmed with the aid of CLSM. Three coverslips with attached biofilms were viewed with CLSM after staining with Syto 9 and propidium iodine (PI) (LIVE/DEAD® BacLight™) according to the manufacturer's instruction. Intact, live cells stain fluorescent green, while dead cells with damaged plasma membranes stain fluorescent red.
(§5) After 96 h the coverslips with the attached bio films were submerged in NaCl-broth or Ca(OH)2-broth for 4 h, 24 h, 48 h, 72 h and 168 h. The negative controls were kept in BHI-broth. Where applicable, the incubation fluids were refreshed daily. Submersion in NaOCl 2% for 10 min served as a positive control.
Assay [2] relates to Pseudomonas aeruginosa. The conditions noted are these: for mean log reduction of CFU compared with the controls: P. aeruginosa in dual-species biofilm; for significance of reduction of P. aeruginosa vs negative controls (ANOVA): α=0.05.
Experimental: as §1, §2, §3, §4, §5
For assay [3], the system named is biofilm of Enterococcus faecalis and Pseudomonas aeruginosa. Kind of assay: Dual-species biofilm model, whole biofilm (total kill, plaque observation). It counts as cell-based. The conditions noted are these: for visual observation of biofilm plaque on glass coverslips: after the experimental phase, calcification seen after 24 h. The source says: The broth was refreshed daily. […] Later on biofilm growth was confirmed clinically. […] Colonies were very small. […] For imaging a Leica DM-IRB inverted microscope/SP2-AOBS confocal system was used. Images (512*512 pixels) were acquired with a 40×/NA 1.25 HCX PL APO oil objective. The final pixel size was 0.776 μm. […] Image stacks were acquired with a stepsize of 0.3 μm. Excitation/detection of Syto-9 and propidium iodide (PI) was done simultaneously with 488 nm excitation and with 500-550 nm detection for SYTO 9 and 600-690 nm detection for PI respectively.

Setting [4] is: dual-species biofilms exposed to Ca(OH)2.

On to `[Cl-].[Na+]` [NaCl, sodium chloride], for which the “mean log reduction of CFU compared with the controls” value in assay [1] (72 h exposure) turned out to be 6 log CFU; in assay [1] (168 h exposure), 8 log CFU; in assay [2] (72 h exposure) it was 6 log CFU; in assay [2] (168 h exposure) it was 8 log CFU. For the same molecule, the “mean remaining CFU of E. faecalis” value in assay [1] (after 168 h exposure) is 40 CFU. For the same molecule, in assay [1], the “significance of reduction of E. faecalis vs negative controls (ANOVA)” value was “highly significant”. The “P. aeruginosa CFU detected after exposure” value in assay [2] (after 168 h exposure, control biofilms 1.5×10^9 CFU) is “none could be detected”. The “significance of reduction of P. aeruginosa vs negative controls (ANOVA)” value in assay [2] is “highly significant”. The “reductions after a week's exposure” value in assay [3] (6.2 M NaCl in broth, dual species biofilm, one value per species, species not assigned) was 10^8 and 10^7. Moreover, the “visual observation of biofilm plaque on glass coverslips” value in assay [3] is on record as “no signs of a biofilm plaque”.

For the molecule `OCl` [NaOCl, sodium hypochlorite], the kill in assay [3] (2% NaOCl, 10 min exposure) is 100%.

As for `[Ca+2].[OH-].[OH-]` [Ca(OH)2, calcium hydroxide], the “mean log reduction of CFU compared with the controls” value turned out to be 2 log CFU in assay [1] (72 h exposure), 1 log CFU in assay [1] (168 h exposure), 2 log CFU in assay [2] (72 h exposure) and 1 log CFU in assay [2] (168 h exposure). Also, the “significance of reduction of E. faecalis vs negative controls (ANOVA)” value in assay [1] is “not significant”. For the same molecule, the “significance of reduction of P. aeruginosa vs negative controls (ANOVA)” value in assay [2] was “significantly”. The “effectiveness in the biofilm model (conclusion)” value in assay [3] was “not effective”. In assay [3], the “visual observation of biofilm plaque on glass coverslips” value is recorded as “all samples showed bio film calcification”. Besides, in assay [3] (setting [4]), the “bacterial reduction after a week (end of experiment)” value was “tenfold”. Moreover, the “bacterial reduction, initial” value in assay [3] (setting [4]) is listed as “hundredfold”.

Values taken from US8808718B2, “Hypertonic organic acid or salt thereof disinfectant composition and its use in dental treatment” (Nikinc Pharma B.V., priority 2010, dated 2014).
